# Values of other authors, collected in US20110130434A1, “MODIFIED RELEASE RAMIPRIL COMPOSITIONS AND USES THEREOF” (Panacea Biotec Ltd., priority 2008, published 2011).
# Columns and labels:
# ACE = ACE (Homo sapiens, UniProt P12821)
# [1] = after oral administration of ramipril
# Sequence of ACE (P12821 30-1306, species assumed): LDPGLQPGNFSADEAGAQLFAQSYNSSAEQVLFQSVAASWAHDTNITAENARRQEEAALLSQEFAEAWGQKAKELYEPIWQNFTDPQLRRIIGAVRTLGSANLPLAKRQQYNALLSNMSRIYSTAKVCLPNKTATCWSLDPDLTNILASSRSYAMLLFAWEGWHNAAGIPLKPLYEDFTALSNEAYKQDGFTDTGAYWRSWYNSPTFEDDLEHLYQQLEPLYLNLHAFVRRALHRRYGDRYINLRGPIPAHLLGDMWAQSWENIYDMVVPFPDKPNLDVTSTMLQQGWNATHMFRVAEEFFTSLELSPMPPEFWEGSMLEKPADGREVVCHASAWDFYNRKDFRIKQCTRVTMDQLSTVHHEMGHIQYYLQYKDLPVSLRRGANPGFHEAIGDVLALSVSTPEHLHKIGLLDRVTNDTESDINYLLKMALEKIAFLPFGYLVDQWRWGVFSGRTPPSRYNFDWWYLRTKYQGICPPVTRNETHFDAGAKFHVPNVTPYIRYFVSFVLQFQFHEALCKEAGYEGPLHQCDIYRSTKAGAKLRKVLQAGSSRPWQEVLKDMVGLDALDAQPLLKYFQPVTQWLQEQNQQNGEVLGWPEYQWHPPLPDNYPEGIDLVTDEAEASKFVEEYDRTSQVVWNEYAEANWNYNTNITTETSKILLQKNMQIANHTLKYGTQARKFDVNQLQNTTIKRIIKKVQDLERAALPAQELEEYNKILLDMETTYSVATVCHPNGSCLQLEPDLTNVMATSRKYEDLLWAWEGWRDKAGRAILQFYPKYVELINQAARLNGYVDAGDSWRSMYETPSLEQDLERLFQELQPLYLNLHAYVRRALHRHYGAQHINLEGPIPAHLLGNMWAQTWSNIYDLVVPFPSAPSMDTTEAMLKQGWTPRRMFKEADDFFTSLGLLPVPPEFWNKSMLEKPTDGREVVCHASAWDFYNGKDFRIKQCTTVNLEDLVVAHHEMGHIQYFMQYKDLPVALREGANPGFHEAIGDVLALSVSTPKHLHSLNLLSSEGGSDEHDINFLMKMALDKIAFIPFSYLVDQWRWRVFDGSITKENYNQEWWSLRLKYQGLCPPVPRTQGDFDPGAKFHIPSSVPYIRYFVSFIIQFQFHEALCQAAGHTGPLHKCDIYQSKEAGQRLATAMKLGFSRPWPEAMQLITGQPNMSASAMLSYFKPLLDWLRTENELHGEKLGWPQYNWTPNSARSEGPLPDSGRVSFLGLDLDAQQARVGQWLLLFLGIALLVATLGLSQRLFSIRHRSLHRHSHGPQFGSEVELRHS
smiles,measurement,setting,value
C[C@H](N[C@@H](CCc1ccccc1)C(=O)O)C(=O)N1[C@H](C(=O)O)C[C@@H]2CCC[C@@H]21 [ramiprilat],ACE inhibitory activity relative to ramipril,ACE,6 times
same,half life,[1],13 to 17 h
